Here are results for 18 molecules from patent publication EP0263209A2, “Anthelmintic quinolinyl acylhydrazones” (THE UPJOHN COMPANY, priority 1986, dated 1988).

Common to all, as to format: in vivo
One test concerns H. contortus. Kind of test: Sheep experimentally infected with Haemonchus contortus, percentage clearance (Procedure No. 1). Particulars: single sheep per route. On the procedure: In individual experiments all sheep are treated identically, however non-critical variations occur between experiments. All of the sheep used in this procedure are treated twice with levamisole hydrochloride orally at 8 mg/kg or once each with ivermectin parenterally at 200 µg/kg and levamisole hydrochloride orally at 8 mg/kg. The second treatment in each case is administered 4-7 days after the first treatment. Two weeks after the second treatment all sheep are inoculated per os with ∼3,500 to ∼7,500 infective larvae of H. contortus. Rectal fecal samples are taken from each sheep 26-41 days post-inoculation (P.I.), and these samples are examined for eggs of H. contortus using the McMaster counting chamber technique. […] One-three days later on days 27-42 PI each sheep remaining in the study (excluding the nontreated controls) is treated with a test compound (orally or parenterally at 100 mg/kg unless indicated otherwise) or a standard (levamisole hydrochloride orally at 8 mg/kg) or is used as an untreated control. All sheep received food and water ad lib. throughout the experiment. Prior to administration, all solid compounds are finely ground using a mortar and pestle. Oral compounds are suspended in 20-30 ml of sterile vehicle #98 (each ml contains: carboxymethylcellulose = 10 mg, polysorbate80 -4 mg, propylparaben - 0.42 mg) using a sonicator and administered along with a tap water wash via a stomach tube. The parenteral compounds are similarly suspended in 20-30 ml of the sterile vehicle and given by intraperitoneal injecting using a 13 gauge, 2 inch needle and a 50 ml syringe. All test compounds are given to a single sheep/route of administration. Two or more sheep are treated with levamisole hydrochloride and five are used as nontreated controls. All animals are monitored for signs of toxicity following treatment. The sheep are sacrificed 7-12 days after treatment (days 35-49 PI), and the abomasum is ligated and removed from each sheep. Each abomasum is longitudinally sectioned and rinsed into an 80 mesh sieve. Sieve contents are collected in individual containers and fixed in formol-alcohol. Later each sample is transferred to a 1000 or 2000 ml beaker and the volume brought to 400-1000 ml with tap water. The total number of worms in a 40-100 ml aliquot (10%) is determined. When no worms are found in the 10% aliquot, the entire sample is examined. Total worm number/sheep and percentage clearance for each treatment are calculated. Percentage clearance for a particular test compound in a given trial is determined according to the following formula: Percentage Clearance (Test Compound) = [(Mean number of worms recovered from nontreated control sheep - Number of worms recovered from treated sheep)/Mean number of worms recovered from nontreated control sheep] x 100. Sheep which die within 24 hr following treatment are not examined for worms, while any that die between 24 hr post-treatment and necropsy are examined in an identical manner as that described above. The results of various trials are combined and reported in Table I as percentage clearance.

A further test has as its system Haemonchus. Put plainly: Sheep naturally infected with helminths, mean percentage clearance of adult worms (Procedure No. 2). Particulars: Oral, 100 mg/kg, groups of five. On the procedure:
(§1) Parasitized sheep are randomly assigned to groups of five animals based on parasitic burden, sex, and farm origin. Sheep are double ear-tagged, weighed, housed in a barn in community pens, fed hay supplemented with 1/2 lb corn/head/day. Water is given ad lib. Animals are allowed to acclimate for one-two weeks prior to treatment.
(§2) Each group of sheep receives a test compound either orally or parenterally at a dosage rate of 100 mg/kg. A group of sheep is treated with 8 mg/kg of levamisole hydrochloride and another group serves as an untreated control group. Orally administered compounds are suspended in 20-30 ml of sterile vehicle #98 (each ml contains: carboxymethylcellulose - 10 mg, polysorbate80 -4 mg, propylparaben - 0.42 mg) using a sonicator and administered along with a tap water wash via a stomach tube. For parenteral administration, compounds are similarly suspended in 20-30 ml of the sterile vehicle and given by intraperitoneal injection using a 20 gauge, 1 inch needle and a 50 ml syringe. Following treatment, all animals are observed for signs of toxicity.
(§3) The number and classification of helminth eggs per gram of feces (e.p.g.) are determined for each sheep during the acclimation period and in some cases at necropsy. Egg counts are made using the McMaster counting chamber technique and rectal fecal samples. Animals dying during the 24 hours immediately following dosing are not subjected to necropsy. Sheep that die 1-6 days posttreatment are posted and complete worm counts performed. All remaining animals are sacrificed on days 7-8 posttreatment. Each sheep is euthanised and bled out prior to opening the abdominal cavity. Ligatures are placed at the reticuloomasal junction, the pyloric valve, and the ileo-cecal junction. The abomasum and small intestine are freed of fat and mesenteric attachments, longitudinally opened, and their contents placed in individual containers. The mucosal surface of each is washed with tap water, rubbed clean, and rinsed several times. Washings and ingesta for each organ are made up to 1 liter and a 10% aliquot in formalin is stored for later examination. The cecum, large intestine, and colon are freed of mesenteric attachments, each is longitudinally opened, and their contents washed, collected, and made up to 1 liter in 10% formalin. The entire sample is stored. All carcasses are incinerated.
(§4) Ten percent of the total contents collected from the abomasum and small intestine and the entire contents of the large intestine, cecum, and colon are examined under stereoscopic magnification (40X). All worms are identified to genus and in some instances species. Separate adult and larval counts are determined.
(§5) The mean percentage clearance against specific helminths in the test sheep is calculated by subtracting the mean number of helminths observed in the treated sheep at necropsy from the mean number observed in the nontreated controls at necropsy, dividing the remainder by the latter mean number and multiplying by 100. The mean percentage clearances against the various helminths identified in the test sheep are calculated.

The subject of the next test is Nematodirus. The description is as above. The note with it: Oral, 100 mg/kg, groups of five. As for the experimental part:
as §1, §2, §3, §4, §5

A further test concerns Oesophagostomum. The description is as above. Particulars: Oral, 100 mg/kg, groups of five. As for the experimental part: as §1, §2, §3, §4, §5
The next test deals with Ostertagia. The test is described as above. Particulars: Oral, 100 mg/kg, groups of five. On the procedure:
as §1, §2, §3, §4, §5

The test system of another test is Trichostrongylus axei. The description is as above. The note with it: Oral, 100 mg/kg, groups of five. On the procedure:
as §1, §2, §3, §4, §5

Test [1] concerns Trichostrongylus colubriformis. The description is as above. Particulars: Oral, 100 mg/kg, groups of five. As for the experimental part:
as §1, §2, §3, §4, §5

The test system of a further test is Trichuris. The test is described as above. The note with it: Oral, 100 mg/kg, groups of five. On the procedure: as §1, §2, §3, §4, §5
Setting [2] is: ip, intraperitoneal administration, read-out: H. contortus %Clearance I.P.
Setting [3] is: oral administration, read-out: H. contortus %Clearance P.O.

SMILES strings stand for the structures. Read-outs that look alike come from different tables or passages of the source.

For `O=C(NN=Cc1ccc2ccccc2n1)c1cccc(O)c1` [Compound 20], the inhibition in vivo at 100 mg/kg is 20.3% in the test with H. contortus (setting [2]) and 0% in the test with H. contortus (setting [3]). With `NC(=O)NCC(=O)NN=Cc1ccc2ccccc2n1` [Compound 12], the inhibition in vivo at 100 mg/kg in the test on H. contortus (setting [3]) turned out to be 32.9%.

Regarding `CCOc1ccc(C(=O)NN=Cc2ccc3ccccc3n2)cc1` [Compound 14], the values for the inhibition in vivo at 100 mg/kg with H. contortus (setting [2]) and in the test with H. contortus (setting [3]) were 0% and 36.8%, respectively. For the molecule `O=C(NN=Cc1cnc2ccccc2c1)C1CCCCC1` [Compound 41], the inhibition in vivo at 100 mg/kg in the test with H. contortus (setting [3]) was 98.2%. As to `Cc1ccccc1C(=O)NN=Cc1ccc2ccccc2n1` [Compound 15], the values for the inhibition in vivo at 100 mg/kg with H. contortus (setting [2]) and in the test with H. contortus (setting [3]) were 0% and 32%, respectively. Consider `O=C(NN=Cc1ccnc2ccccc12)c1cccs1` [Compound 16], for which the inhibition in vivo at 100 mg/kg in the test with H. contortus (setting [2]) stood at 80.1%; with H. contortus (setting [3]) it was 25.2%. `O=C(NN=Cc1ccc2ccccc2n1)c1ccccc1` [Compound 8, benozic acid (2-quinolinylmethylene) hydrazide]: the inhibition in vivo at 100 mg/kg in the test on H. contortus (setting [3]) turned out to be 33%.

Turning to `O=C(NN=Cc1ccnc2ccccc12)C1CCC1` [Compound 29, cyclobutanecarboxylic acid (4-quinolinylmethylene)hydrazide], the inhibition in vivo at 100 mg/kg with H. contortus (setting [2]) amounted to 88.4%; in the test with H. contortus (setting [3]), 99.8%. For `CC(=O)NN=Cc1cnc2ccccc2c1` [Compound 43], the inhibition in vivo at 100 mg/kg in the test on H. contortus (setting [3]) amounted to 85.4%. As to `CCOC(=O)NN=Cc1ccnc2ccccc12` [Compound 6, ethyl (4-quinolinylmethylene)carbazate], the inhibition in vivo at 100 mg/kg in the test on H. contortus (setting [2]) stood at 61.2%; in the test with H. contortus (setting [3]), 82.9%. For the same molecule, the “Percentage Clearance of Adult Worms H.” value with Haemonchus turned out to be 94.1%. Also, in the test on Nematodirus, the “Percentage Clearance of Adult Worms N.” value worked out at 45.2%. Also, the “Percentage Clearance of Adult Worms Oes.” value with Oesophagostomum worked out at 33.3%. In addition, the “Percentage Clearance of Adult Worms Ost.” value in the test on Ostertagia stood at 79.4%. Further, the “Percentage Clearance of Adult Worms T.a.” value in the test on Trichostrongylus axei was determined as 0%. For the same molecule, the “Percentage Clearance of Adult Worms T.c.” value in test [1] is given as 61.4%. For the same molecule, the “Percentage Clearance of Adult Worms Trich.” value in the test on Trichuris worked out at 11.1%. As for `CCC(=O)NN=Cc1cnc2ccccc2c1` [Compound 39], in the test with H. contortus (setting [3]), the inhibition in vivo at 100 mg/kg turned out to be 96.4%. Regarding `Cc1cccc(C(=O)NN=Cc2ccc3ccccc3n2)c1` [Compound 4, 3-methylbenzoic acid (2-quinolinylmethyl-ene)hydrazide], the inhibition in vivo at 100 mg/kg was found to be 29.8% in the test with H. contortus (setting [2]) and 53.3% in the test with H. contortus (setting [3]). On to `O=C(NN=Cc1ccc2ccccc2n1)c1cccc([N+](=O)[O-])c1` [Compound 23, 3-nitrobenzoic acid (2-quinolinylmethylene)hydrazide], for which the figures for the inhibition in vivo at 100 mg/kg in the test on H. contortus (setting [2]) and in the test with H. contortus (setting [3]) were 0% and 39.5%, respectively. The corresponding values for `O=C(NN=Cc1ccnc2ccccc12)c1ccc(C(F)(F)F)cc1` [Compound 26, 4-trifluoromethylbenzoic acid (4-quinolinylmethylene)hydrazide] are 29% and 40.2%. With `O=C(NN=Cc1ccnc2ccccc12)c1ccccc1` [Compound 11], the inhibition in vivo at 100 mg/kg with H. contortus (setting [3]) was found to be 96.8%. Take `COc1ccc(C(=O)NN=Cc2ccc3ccccc3n2)cc1` [Compound 22, 4-methoxybenzoic acid (2-quinolinylmethylene)hydrazide]: the inhibition in vivo at 100 mg/kg was 14.3% with H. contortus (setting [2]) and 0% in the test on H. contortus (setting [3]). Regarding `O=C(NN=Cc1ccc2ccccc2n1)c1cccnc1` [Compound 9], the inhibition in vivo at 100 mg/kg in the test on H. contortus (setting [3]) came to 76.8%. As to `COC(=O)NN=Cc1ccnc2ccccc12` [Compound 25, methyl (4-quinolinylmethylene)carbazate], the inhibition in vivo at 100 mg/kg with H. contortus (setting [3]) was 3.4%.
